Assay results as given in the supplement of paper PMC10307832.

How the values were obtained:
Assay in all cases: relative viability (nuclei count vs DMSO), 5 days (fraction); higher = more cells survive
Zebularine + Vorinostat = compound: O=c1ncccn1[C@@H]1O[C@H](CO)[C@@H](O)[C@H]1O [Zebularine] + O=C(CCCCCCC(=O)Nc1ccccc1)NO [Vorinostat] (partner 1 µM)
How it was run: (§1)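 Dosing by pin tool came one day after lung cancer cell lines were seeded in 1536-well plates, using either one drug or a fixed anchor-drug dose plus five library-drug doses (not always all listed) in √10 steps. After 5 days, nuclei were counted on 4× images. Relative viability is treated-well nuclei count divided by vehicle-well nuclei count, and values are medians of duplicate plates.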

Zebularine + Tozasertib = compound: O=c1ncccn1[C@@H]1O[C@H](CO)[C@@H](O)[C@H]1O [Zebularine] + Cc1cc(Nc2cc(N3CCN(C)CC3)nc(Sc3ccc(NC(=O)C4CC4)cc3)n2)n[nH]1 [Tozasertib] (partner 0.1 µM)
How it was run: as §1

BI-D1870 + Decitabine = compound: CC(C)CCN1c2nc(Nc3cc(F)c(O)c(F)c3)ncc2N(C)C(=O)C1C [BI-D1870] + Nc1ncn([C@H]2C[C@H](O)[C@@H](CO)O2)c(=O)n1 [Decitabine] (partner 2 µM)
How it was run: as §1

BI-D1870 + Crizotinib = compound: CC(C)CCN1c2nc(Nc3cc(F)c(O)c(F)c3)ncc2N(C)C(=O)C1C [BI-D1870] + C[C@@H](Oc1cc(-c2cnn(C3CCNCC3)c2)cnc1N)c1c(Cl)ccc(F)c1Cl [Crizotinib] (partner 1 µM)
How it was run: as §1

Row | Cell Line | relative viability (Zebularine + Vorinostat; first compound 1 µM) | relative viability (Zebularine + Vorinostat; first compound 3.162 µM) | relative viability (Zebularine + Vorinostat; first compound 10 µM) | relative viability (Zebularine + Vorinostat; first compound 31.62 µM) | relative viability (Zebularine + Vorinostat; first compound 100 µM) | relative viability (Zebularine + Tozasertib; first compound 1 µM) | relative viability (Zebularine + Tozasertib; first compound 3.162 µM) | relative viability (Zebularine + Tozasertib; first compound 10 µM) | relative viability (Zebularine + Tozasertib; first compound 31.62 µM) | relative viability (Zebularine + Tozasertib; first compound 100 µM) | relative viability (BI-D1870 + Decitabine; first compound 0.04 µM) | relative viability (BI-D1870 + Decitabine; first compound 0.1265 µM) | relative viability (BI-D1870 + Decitabine; first compound 0.4 µM) | relative viability (BI-D1870 + Decitabine; first compound 1.265 µM) | relative viability (BI-D1870 + Decitabine; first compound 4 µM) | relative viability (BI-D1870 + Crizotinib; first compound 0.04 µM) | relative viability (BI-D1870 + Crizotinib; first compound 0.1265 µM) | relative viability (BI-D1870 + Crizotinib; first compound 0.4 µM) | relative viability (BI-D1870 + Crizotinib; first compound 1.265 µM) | relative viability (BI-D1870 + Crizotinib; first compound 4 µM)
1 | NCI-H460 | 0.652 | 0.702 | 0.297 | 0.298 | 0.166 | 0.61 | 0.499 | 0.529 | 0.193 | 0.0561 | 0.548 | 0.459 | 0.473 | 0.593 | 0.443 | 1.2 | 0.76 | 0.84 | 0.926 | 0.14
2 | NCI-H650 | 0.398 | 0.376 | 0.343 | 0.297 | 0.225 | 0.756 | 0.656 | 0.524 | 0.346 | 0.238 | 0.336 | 0.339 | 0.331 | 0.314 | 0.286 | 0.672 | 0.667 | 0.695 | 0.662 | 0.405
3 | NCI-H661 | 0.9 | 0.829 | 0.673 | 0.936 | 0.824 | 0.338 | 0.346 | 0.381 | 0.361 | 0.396 | 0.524 | 0.555 | 0.542 | 0.651 | 0.546 | 1.24 | 0.963 | 0.973 | 1.05 | 0.902
4 | NCI-H1734 | 0.983 | 0.717 | 0.425 | 0.401 | 0.253 | 0.284 | 0.247 | 0.263 | 0.206 | 0.207 | 0.482 | 0.448 | 0.531 | 0.559 | 0.525 | 0.806 | 0.618 | 0.593 | 0.664 | 0.645
5 | LXF-289 | 0.853 | 0.809 | 0.635 | 0.667 | 0.254 | 0.19 | 0.169 | 0.124 | 0.0978 | 0.116 | 0.35 | 0.382 | 0.372 | 0.411 | 0.416 | 0.905 | 0.796 | 0.797 | 0.793 | 0.619
6 | H3255 | 0.793 | 0.864 |  | 0.795 | 0.75 | 0.542 | 0.61 | 0.271 | 0.106 | 0.627 | 0.633 | 0.643 | 0.571 | 0.749 | 0.648 | 0.831 | 0.924 | 0.862 | 0.987 | 0.981
7 | 201T | 0.944 | 0.921 | 0.955 | 1.05 | 1.02 | 1.03 | 0.938 | 0.647 | 0.977 | 0.595 | 0.886 | 0.849 | 0.847 | 0.848 | 0.879 | 1.02 | 1.02 | 1.04 | 1.07 | 1.03
8 | NCI-H2126 | 0.664 | 0.524 | 0.853 | 0.698 | 0.474 | 0.911 | 0.807 | 0.727 | 0.791 | 0.479 | 0.576 | 0.549 | 0.585 | 0.606 | 0.556 | 1.09 | 1.07 | 0.994 | 1.04 | 1.01
9 | HOP-62 | 0.717 | 0.474 | 0.365 | 0.203 | 0.22 | 0.503 | 0.396 | 0.212 | 0.154 | 0.167 | 0.212 | 0.241 | 0.208 | 0.198 | 0.314 | 1.08 | 0.986 | 0.963 | 1.01 | 0.915
10 | NCI-H520 | 0.752 | 0.685 | 0.462 | 0.45 | 0.242 | 0.43 | 0.561 | 0.353 | 0.269 | 0.25 | 0.406 | 0.494 | 0.597 | 0.649 | 0.471 | 1.05 | 0.687 | 0.766 | 0.824 | 0.476
11 | NCI-H1755 | 0.809 | 0.892 | 0.614 | 1.11 | 0.648 | 0.639 | 0.531 | 0.512 | 0.663 | 0.488 | 0.716 | 0.685 | 0.701 | 0.715 | 0.692 | 0.977 | 0.838 | 0.876 | 0.829 | 0.762
12 | NCI-H2023 | 0.946 | 0.561 | 0.509 | 0.518 | 0.216 | 0.462 | 0.319 | 0.242 | 0.283 | 0.169 | 0.204 | 0.188 | 0.232 | 0.248 | 0.281 | 0.724 | 0.525 | 0.579 | 0.612 | 0.497
13 | NCI-H2009 | 0.728 | 0.679 | 0.625 | 0.63 | 0.241 | 0.891 | 0.737 | 0.497 | 0.659 | 0.297 | 0.379 | 0.366 | 0.394 | 0.397 | 0.3 | 1.06 | 0.996 | 0.962 | 0.609 | 0.457
